Laboratory results: ChEMBL document CHEMBL1138948, “Design, synthesis, and evaluation of proline and pyrrolidine based melanocortin receptor agonists. A conformationally restricted dipeptide mimic approach” (J Med Chem, 2006)
Non-standard residues stand in square brackets, D forms with d. Residues, ends and D or L forms follow the SMILES beside them. 2Nal = N[C@@H](Cc1ccc2ccccc2c1)C(=O)O

Experiments:
[1] = molecular target: T1, Melanocyte-stimulating hormone receptor (Homo sapiens, UniProt Q01726); experiment: Displacement of europium labeled NDP-alpha-MSH from human MC1R expressed in HEK293 cells; assay type: cell-based
Melanocortin receptor 3 [2] = molecular target: T2, Melanocortin receptor 3 (Homo sapiens, UniProt P41968); experiment: Displacement of europium labeled NDP-alpha-MSH from human MC3R expressed in HEK293 cells; assay type: cell-based
[3] = molecular target: T1, Melanocyte-stimulating hormone receptor; experiment: Agonist activity at human MC1R transfected in HEK293 cells; assay type: functional, cell-based
Melanocortin receptor 3 [4] = molecular target: T2, Melanocortin receptor 3; experiment: Agonist activity at human MC3R transfected in HEK293 cells; assay type: functional, cell-based
Melanocortin receptor 4 [5] = molecular target: T3, Melanocortin receptor 4 (Homo sapiens, UniProt P32245); experiment: Displacement of europium labeled NDP-alpha-MSH from human MC4R expressed in HEK293 cells; assay type: cell-based
Melanocortin receptor 4 [6] = molecular target: T3, Melanocortin receptor 4; experiment: Agonist activity at human MC4R transfected in HEK293 cells; assay type: functional, cell-based

T2 sequence (P41968 whole entry): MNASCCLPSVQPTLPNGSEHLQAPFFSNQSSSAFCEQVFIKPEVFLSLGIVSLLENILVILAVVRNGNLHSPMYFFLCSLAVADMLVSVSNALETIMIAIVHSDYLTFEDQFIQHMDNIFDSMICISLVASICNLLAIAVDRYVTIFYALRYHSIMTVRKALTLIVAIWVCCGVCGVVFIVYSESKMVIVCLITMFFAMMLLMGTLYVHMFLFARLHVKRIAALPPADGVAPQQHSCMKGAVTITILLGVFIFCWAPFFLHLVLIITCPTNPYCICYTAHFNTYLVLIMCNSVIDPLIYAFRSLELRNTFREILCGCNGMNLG
T3 sequence (P32245 whole entry): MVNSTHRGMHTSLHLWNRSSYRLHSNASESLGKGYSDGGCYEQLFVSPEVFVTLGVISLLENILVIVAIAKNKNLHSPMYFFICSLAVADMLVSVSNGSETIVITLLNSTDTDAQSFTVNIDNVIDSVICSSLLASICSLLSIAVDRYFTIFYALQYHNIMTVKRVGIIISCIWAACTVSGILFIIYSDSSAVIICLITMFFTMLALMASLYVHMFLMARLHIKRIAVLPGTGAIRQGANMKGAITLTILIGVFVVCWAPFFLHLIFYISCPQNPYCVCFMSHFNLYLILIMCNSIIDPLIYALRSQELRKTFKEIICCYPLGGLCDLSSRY
T1 sequence (Q01726 whole entry): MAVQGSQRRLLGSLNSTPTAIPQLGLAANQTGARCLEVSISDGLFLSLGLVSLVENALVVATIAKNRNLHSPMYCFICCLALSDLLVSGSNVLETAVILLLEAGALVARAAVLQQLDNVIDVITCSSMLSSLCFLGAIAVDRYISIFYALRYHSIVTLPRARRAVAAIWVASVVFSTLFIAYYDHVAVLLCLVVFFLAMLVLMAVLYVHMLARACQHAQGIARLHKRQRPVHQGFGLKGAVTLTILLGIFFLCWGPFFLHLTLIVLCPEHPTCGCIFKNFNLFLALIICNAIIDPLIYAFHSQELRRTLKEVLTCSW

Ki [1] [µM] | Ki (Melanocortin receptor 3 [2]) [µM] | EC50 [3] [µM] | EC50 (Melanocortin receptor 3 [4]) [µM] | Ki (Melanocortin receptor 4 [5]) [µM] | EC50 (Melanocortin receptor 4 [6]) [µM] | Compound
0.035 | 2.86 | 0.014 | 0.248 | – | – | CC(=O)N[C@@H](Cc1c[nH]cn1)C(=O)N[C@@H](Cc1ccccc1)C(=O)N[C@@H](CCCN=C(N)N)C(=O)N[C@@H](Cc1c[nH]c2ccccc12)C(N)=O
1.57 | 29.1 | 0.521 | 2.99 | 8.16 | 1.62 | NC(=O)C[C@H](N)C(=O)N[C@H](Cc1ccccc1)C(=O)N1C[C@@H](OCc2ccc3ccccc3c2)C[C@H]1CCCN=C(N)N
0.182 | 0.154 | 0.201 | 0.313 | 0.059 | 0.02 | CC(=O)N[C@@H](Cc1ccccc1)C(=O)N[C@H](Cc1ccccc1)C(=O)N1C[C@H](OCc2ccc3ccccc3c2)C[C@@H]1CCCN=C(N)N
4.38 | 22.6 | 20 | – | 2.01 | 0.809 | CNC(=O)[C@H](Cc1ccc2ccccc2c1)NC(=O)[C@H](CCCN=C(N)N)NC(=O)[C@H](N)Cc1ccccc1
0.019 | 8.1 | 0.019 | 1.47 | 4.39 | 1.09 | N=C(N)NCCC[C@@H]1C[C@@H](OCc2ccc3ccccc3c2)CN1C(=O)[C@@H](Cc1ccccc1)NC(=O)[C@@H]1Cc2ccccc2CN1
0.042 | 0.086 | 0.098 | 0.232 | 0.01 | 0.01 | N=C(N)NCCC[C@H]1C[C@@H](OCc2ccc3ccccc3c2)CN1C(=O)[C@@H](Cc1ccccc1)NC(=O)[C@@H]1Cc2ccccc2CN1
0.125 | 1.26 | 0.028 | 0.286 | 0.121 | 0.054 | N=C(N)NCCC[C@H]1C[C@H](OCc2ccc3ccccc3c2)CN1C(=O)[C@@H](Cc1ccccc1)NC(=O)[C@@H]1CCCCN1
1.4 | 4.18 | 1.36 | 3.15 | 0.67 | 0.457 | N=C(N)NCCC[C@@H]1C[C@H](OCc2ccc3ccccc3c2)CN1C(=O)[C@@H](Cc1ccccc1)NC(=O)[C@@H]1Cc2ccccc2CN1
0.015 | 0.703 | 0.024 | 0.266 | 0.76 | 0.249 | NC(N)=NCCNC(=O)[C@H]1C[C@@H](OCc2ccc3ccccc3c2)CN1C(=O)[C@@H](Cc1ccccc1)NC(=O)[C@@H](N)Cc1c[nH]cn1
0.055 | 0.219 | 0.052 | 0.593 | 0.046 | 0.017 | NC(N)=NCCC[C@H]1C[C@@H](OCc2ccc3ccccc3c2)CN1C(=O)[C@@H](Cc1ccccc1)NC(=O)[C@@H]1CCCN1
0.34 | 7.44 | 0.449 | – | 1.71 | 10.8 | N=C(N)NCCC[C@@H]1C[C@@H](OCc2ccc3ccccc3c2)CN1C(=O)[C@@H](Cc1ccccc1)NC(=O)[C@@H]1CCCCN1
1.69 | 19.2 | 1.75 | – | 2.35 | 20 | CC(=O)N[C@@H](Cc1ccc(O)cc1)C(=O)N[C@H](Cc1ccccc1)C(=O)N1C[C@H](OCc2ccc3ccccc3c2)C[C@H]1CCCN=C(N)N
1.79 | 7.16 | 1.07 | – | 2.26 | 0.515 | N=C(N)NCCC[C@@H]1C[C@H](OCc2ccc3ccccc3c2)CN1C(=O)[C@@H](Cc1ccccc1)NC(=O)[C@@H]1CCCCN1
– | – | 20 | – | – | – | CNC(=O)[C@H](Cc1ccc2ccccc2c1)NC(=O)[C@H](CCCN=C(N)N)NC(=O)[C@@H](Cc1ccccc1)NC(=O)[C@H](Cc1ccc(O)cc1)NC(C)=O (Ac-Y[dF]R[2Nal]-NHMe)
0.443 | 15.4 | 0.402 | – | 6.67 | 20 | NC(=O)C[C@H](N)C(=O)N[C@H](Cc1ccccc1)C(=O)N1C[C@H](OCc2ccc3ccccc3c2)C[C@H]1CCCN=C(N)N
